Experimental data published in patent US20240381872A1, “SUBSTITUTED 2,3-DIHYDRO[1,3]THIAZOLO[4,5-B]PYRIDINES, SALTS THEREOF AND THEIR USE AS HERBICIDALLY ACTIVE SUBSTANCES” (BAYER AKTIENGESELLSCHAFT, priority 2021, published 2024).

Columns and labels:
Type in all cases: in vivo
[1] = tested on: Matricaria inodora (MATIN); test: Herbicidal post-emergence action, section B (Table B6); conditions: visual rating about 3 weeks after treatment vs untreated controls
Experimental: (§1) Seeds of mono- and dicotyledonous weed plants were placed in plastic pots in sandy loam soil (doubly sown with in each case one species of mono- or dicotyledonous weed plants per pot), covered with soil and cultivated in a greenhouse under controlled growth conditions. 2 to 3 weeks after sowing, the test plants were treated at the one-leaf stage. The compounds of the invention, formulated in the form of wettable powders (WP) or as emulsion concentrates (EC), were applied onto the green parts of the plants as aqueous suspension or emulsion with addition of 0.5% additive at a water application rate of 600 liters per hectare (converted). After the test plants had been kept in the greenhouse under optimum growth conditions for about 3 weeks, the activity of the preparations was rated visually in comparison to untreated controls. For example, 100% activity=the plants have died, 0% activity=like control plants.

Viola tricolor (VIOTR) = test: Herbicidal pre-emergence action, section C (Table C9); conditions: visual grading after ca. 3 weeks
Excerpt: (§2) Seeds of mono- and dicotyledonous weed plants and crop plants were sown, in plastic or organic planting pots, in sandy loam and covered with soil. The compounds according to the invention, formulated in the form of wettable powders (WP) or as emulsifiable concentrates (EC), were applied to the surface of the covering soil as aqueous suspension or emulsion, with the addition of 0.5% of an additive, at an application rate of 600 l of water/ha (converted). Following treatment, the pots were placed in a greenhouse and kept under optimum growth conditions for the test plants. The visual grading of the damage to the test plants was carried out after ca. 3 weeks in comparison to untreated controls (herbicidal effect in percent (%): 100% effect=plants have died off, 0% effect=as control plants).

Oryza sativa (ORYZA) = test: Pre-emergence effects on crop plants, section D (Table D3); conditions: visual grading after ca. 3 weeks
Excerpt: Seeds of mono- and dicotyledonous weed plants and crop plants were sown, in plastic or organic planting pots, in sandy loam and covered with soil. The compounds according to the invention, formulated in the form of wettable powders (WP) or as emulsifiable concentrates (EC), were applied to the surface of the covering soil as aqueous suspension or emulsion, with the addition of 0.5% of an additive, at an application rate of 600 l of water/ha (converted).
Following treatment, the pots were placed in a greenhouse and kept under optimum growth conditions for the test plants. The visual grading of the damage to the test plants was carried out after ca. 3 weeks in comparison to untreated controls (herbicidal effect in percent (%): 100% effect=plants have died off, 0% effect=as control plants).
Tables D1 to D5 below show the effects of various compounds of the general formula (I) according to Table 1 on various crop plants and an application rate corresponding to 320 g/ha or below obtained by the experimental procedure mentioned above in Biological Examples, Section C.

Setaria viridis (SETVI) = test: Herbicidal post-emergence action, section E (Table E8); conditions: application rate 320 g/ha, visual assessment ca. 3 weeks after spraying; for pest or weed control at 320 g/ha: Setaria viridis, 504 h, read-out: post-emergence activity against SETVI in %
Excerpt: (§3) Seeds of mono- and dicotyledonous weed plants and crop plants were sown, in plastic or organic planting pots, in sandy loam, covered with soil and grown in a greenhouse under controlled growth conditions. 2 to 3 weeks after sowing, the test plants were sprayed in the single-leaf stage. The compounds according to the invention, formulated in form of wettable powders (WP) or as emulsifiable concentrates (EC), were sprayed onto the green plant parts as aqueous suspension or emulsion, with the addition of 0.5% of an additive, at an application rate of 600 l of water/ha (converted). The test plants were placed in the greenhouse for ca. 3 weeks under optimum growth conditions, and then the effect of the preparations was assessed visually in comparison with untreated controls (herbicidal effect in percent (%): 100% effect=plants have died off, 0% effect=as control plants).

Brassica napus (BRSNW) [2] = test: Post-emergence effects on crop plants, section F (Table F5); conditions: for post-emergence activity against BRSNW in %: crop plant damage
Procedure, shortened: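 Percent damage was rated by eye roughly 3 weeks after treatment against untreated plants, where 0% = as control and 100% = died off. Spraying used WP or EC formulations plus 0.5% additive at 600 l water/ha, with rates of 320 g/ha or less. Plants were at the single-leaf stage, sown 2-3 weeks earlier in sandy loam under greenhouse conditions.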

[3] = tested on: Alopecurus myosuroides (ALOMY); test: Herbicidal post-emergence action, section B (Table B2); conditions: rated visually about 3 weeks after treatment vs untreated controls, 100% = plants have died, 0% = like control plants; for pest or weed control at 1280 g/ha: Alopecurus myosuroides, post-emergence, 504 h, read-out: post-emergence activity against ALOMY
Experimental: as §1

Brassica napus (BRSNW) [4] = test: Pre-emergence effects on crop plants, section D (Table D5); conditions: application rate 80 g/ha; visual grading after ca. 3 weeks
Procedure, shortened: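 Read-out: visual percent injury versus untreated controls at ca. 3 weeks (0% as control, 100% dead). Treatment: aqueous WP/EC suspension or emulsion with 0.5% additive, 600 l/ha, on soil covering seeds in sandy loam, at 320 g/ha or below, under optimum greenhouse conditions.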

Kochia scoparia (KCHSC) [5] = test: Herbicidal pre-emergence action, section C (Table C13); conditions: application rate 320 g/ha, visual grading after ca. 3 weeks
Excerpt: as §2

Kochia scoparia (KCHSC) [6] = test: Herbicidal post-emergence action, section E (Table E11); conditions: visual assessment ca. 3 weeks after spraying
Excerpt: as §3

[7] = Viola tricolor, pre-emergence, 504 h, application rate 320 g/ha, read-out: pre-emergence activity against VIOTR in %
[8] = Brassica napus, 504 h, application rate 80 g/ha, read-out: post-emergence activity against BRSNW in %

COC(=O)CCC(=O)N1CSc2cc(C)c(-c3ccccc3F)nc21 [Example I-010]
post-emergence activity against MATIN in % ([1]; application rate 1280 g/ha): 90%

CC(C)C(=O)N1C[S+]([O-])c2cc(Br)c(-c3ccccc3)nc21 (stereo not shown) [Example I-067]
pest or weed control at 320 g/ha (Viola tricolor (VIOTR); [7]): 100%
pre-emergence activity against ORYZA in % (crop plant damage) (Oryza sativa (ORYZA); application rate 80 g/ha): 20%
pest or weed control at 320 g/ha (Setaria viridis (SETVI)): 80%
crop plant damage (phytotoxicity) in % at 80 g/ha (Brassica napus (BRSNW) [2]; [8]): 0%

COC(=O)CCC(=O)N1CSc2cc(Cl)c(-c3ccccc3F)nc21 [Example I-003]
post-emergence activity against ALOMY ([3]; application rate 320 g/ha): 100%
pre-emergence activity against BRSNW in % (crop plant damage) (Brassica napus (BRSNW) [4]): 20%
post-emergence activity against SETVI in % (Setaria viridis (SETVI)): 80%

Cc1cc2c(nc1-c1ccccc1F)N(S(=O)(=O)Cc1ccc(F)cc1)CS2 [Example I-122]
post-emergence activity against ALOMY ([3]; application rate 1280 g/ha): 90%
post-emergence activity against MATIN in % ([1]; application rate 1280 g/ha): 90%
pre-emergence activity against VIOTR in % (Viola tricolor (VIOTR); application rate 320 g/ha): 80%
pre-emergence activity against KCHSC in % (Kochia scoparia (KCHSC) [5]): 90%
post-emergence activity against SETVI in % (Setaria viridis (SETVI)): 80%
post-emergence activity against KCHSC in % (Kochia scoparia (KCHSC) [6]; application rate 80 g/ha): 80%
post-emergence activity against BRSNW in % (Brassica napus (BRSNW) [2]; application rate 80 g/ha): 0%

CCc1ccccc1-c1nc2c(cc1C)[S+]([O-])CN2 (stereo not shown) [Example I-047]
pest or weed control at 80 g/ha (Viola tricolor (VIOTR); Viola tricolor, pre-emergence, 504 h, application rate 80 g/ha, read-out: pre-emergence activity against VIOTR in %): 90%
crop plant damage (phytotoxicity) in % at 320 g/ha (Brassica napus (BRSNW) [2]; Brassica napus, 504 h, application rate 320 g/ha, read-out: post-emergence activity against BRSNW in %): 20%

Cc1cc2c(nc1-c1ccccc1F)N(C(=O)C1(C)CC(Cl)=NO1)CS2 (stereo not shown) [Example I-083]
post-emergence activity against ALOMY ([3]; application rate 1280 g/ha): 90%
post-emergence activity against MATIN in % ([1]; application rate 320 g/ha): 90%
pre-emergence activity against VIOTR in % (Viola tricolor (VIOTR); application rate 80 g/ha): 90%
pre-emergence activity against ORYZA in % (crop plant damage) (Oryza sativa (ORYZA); application rate 80 g/ha): 20%
post-emergence activity against SETVI in % (Setaria viridis (SETVI)): 80%

Cc1cc2c(nc1-c1cccc(C)c1F)NCS2 [Example I-113]
post-emergence activity against ALOMY ([3]; application rate 1280 g/ha): 90%
post-emergence activity against MATIN in % ([1]; application rate 1280 g/ha): 90%
pre-emergence activity against KCHSC in % (Kochia scoparia (KCHSC) [5]): 80%
post-emergence activity against BRSNW in % (Brassica napus (BRSNW) [2]; application rate 320 g/ha): 20%

CCS(=O)(=O)N1C[S+]([O-])c2cc(C)c(-c3ccccc3C)nc21 (stereo not shown) [Example I-074]
pest or weed control at 320 g/ha (Viola tricolor (VIOTR); [7]): 90%

CC1(C(=O)N2CSc3cc(Br)c(-c4ccccc4)nc32)CC(Cl)=NO1 (stereo not shown) [Example I-139]
pre-emergence activity against KCHSC in % (Kochia scoparia (KCHSC) [5]): 90%
post-emergence activity against KCHSC in % (Kochia scoparia (KCHSC) [6]; application rate 320 g/ha): 90%

Cc1cc2c(nc1-c1cccc(F)c1F)NCS2 [Example I-029, 5-(2,3-difluorophenyl)-6-methyl-2,3-dihydro[1,3]thiazolo[4,5-b]pyridine]
pest or weed control at 1280 g/ha ([3]; application rate 1280 g/ha): 90%

CC(=O)N1CSc2cc(Br)c(-c3ccccc3Cl)nc21 [Example I-055, 1-[6-bromo-5-(2-chlorophenyl)[1,3]thiazolo[4,5-b]pyridin-3(2H)-yl]ethanone]
pre-emergence activity against ORYZA in % (crop plant damage) (Oryza sativa (ORYZA); application rate 320 g/ha): 20%
pre-emergence activity against BRSNW in % (crop plant damage) (Brassica napus (BRSNW) [4]): 20%
crop plant damage (phytotoxicity) in % at 80 g/ha (Brassica napus (BRSNW) [2]; [8]): 10%

Clc1ccccc1-c1nc2c(cc1Br)SCN2 [Example I-041, 6-bromo-5-(2-chlorophenyl)-2,3-dihydro[1,3]thiazolo[4,5-b]pyridine]
pest or weed control at 1280 g/ha ([3]; application rate 1280 g/ha): 90%
pre-emergence activity against ORYZA in % (crop plant damage) (Oryza sativa (ORYZA); application rate 320 g/ha): 20%

CC1(C(=O)N2CSc3cc(Br)c(-c4ccccc4Cl)nc32)CC(Cl)=NO1 (stereo not shown) [Example I-141, [6-bromo-5-(2-chlorophenyl)[1,3]thiazolo[4,5-b]pyridin-3(2H)-yl](3-chloro-5-methyl-4,5-dihydro-1,2-oxazol-5-yl)methanone]
pest or weed control at 320 g/ha (Kochia scoparia (KCHSC) [5]; Bassia scoparia, pre-emergence, 504 h, read-out: pre-emergence activity against KCHSC in %): 90%
pre-emergence activity against BRSNW in % (crop plant damage) (Brassica napus (BRSNW) [4]): 20%
pest or weed control at 80 g/ha (Kochia scoparia (KCHSC) [6]; Bassia scoparia, 504 h, application rate 80 g/ha, read-out: post-emergence activity against KCHSC in %): 80%
crop plant damage (phytotoxicity) in % at 80 g/ha (Brassica napus (BRSNW) [2]; [8]): 20%

Cc1ccccc1-c1nc2c(cc1C)SCN2C(=O)C1(C)CC(Cl)=NO1 (stereo not shown) [Example I-137]
post-emergence activity against MATIN in % ([1]; application rate 1280 g/ha): 90%
pre-emergence activity against KCHSC in % (Kochia scoparia (KCHSC) [5]): 100%
post-emergence activity against KCHSC in % (Kochia scoparia (KCHSC) [6]; application rate 80 g/ha): 90%

Cc1cc2c(nc1-c1ccccc1Cl)NCS2 [Example I-049, 5-(2-chlorophenyl)-6-methyl-2,3-dihydro[1,3]thiazolo[4,5-b]pyridine]
pest or weed control at 320 g/ha (Setaria viridis (SETVI)): 80%
